Key:
Type in all cases: in vivo
[1] = test system: pigweed (Amaranthus retroflexus); assay: Test A postemergence, pigweed; settings: 0 to 100 scale (0 no effect, 100 complete control)
Procedure, shortened: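 Each compound, in a non-phytotoxic solvent mixture with surfactant, is applied to soil at planting and, concurrently, to young one- to two-leaf plants. After approximately ten greenhouse days, visual response is rated 0 (no effect) to 100 (complete control) against untreated controls.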

[2] = test system: ducksalad (Heteranthera limosa); assay: Test B flooded paddy test, ducksalad; settings: Flood, scale 0 to 100
Procedure, shortened: (§1)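 Rice, umbrella sedge, ducksalad and barnyardgrass at 2-leaf stage; pots flooded to 3 cm, compounds applied into paddy water, depth held throughout. Greenhouse 13 to 15 days, then visual rating vs untreated controls on 0–100 scale (0 no effect, 100 complete control); dash means no test result.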

[3] = test system: Italian ryegrass (Lolium multiflorum); assay: Test B preemergence, Italian ryegrass; settings: Preemergence, scale 0 to 100
Text: (§2) Seeds of plant species selected from blackgrass (Alopecurus myosuroides), downy bromegrass (Bromus tectorum), green foxtail (Setaria viridis), Italian ryegrass (Lolium multiflorum), wheat (Triticum aestivum), wild oat (Avena fatua), catchweed bedstraw (Galium aparine), bermudagrass (Cynodon dactylon), Surinam grass (Brachiaria decumbens), cocklebur (Xanthium strumarium), corn (Zea mays), large crabgrass (Digitaria sanguinalis), woolly cupgrass (Eriochloa villosa), giant foxtail (Setaria faberii), goosegrass (Eleusine indica), johnsongrass (Sorghum halepense), kochia (Kochia scoparia), lambsquarters (Chenopodium album), morningglory (Ipomoea coccinea), nightshade (eastern black nightshade, Solanum ptycanthum), yellow nutsedge (Cyperus esculentus), pigweed (Amaranthus retroflexus), ragweed (common ragweed, Ambrosia elatior), soybean (Glycine max), sunflower (common oilseed sunflower, Helianthus annuus), Russian thistle (Salsola kali), and velvetleaf (Abutilon theophrasti) were planted into a blend of loam soil and sand and treated preemergence with test compounds formulated in a non-phytotoxic solvent mixture which included a surfactant. Treated plants and controls were maintained in a greenhouse for 13 to 15 days, after which time all species were compared to controls and visually evaluated. Plant response ratings, summarized in Table B, are based on a scale of 0 to 100 where 0 is no effect and 100 is complete control. A dash (-) response means no test result.

[4] = test system: wheat (Triticum aestivum); assay: Test B preemergence, wheat; settings: Preemergence, scale 0 to 100
Text: as §2

[5] = test system: ragweed (common ragweed, Ambrosia elatior); assay: Test B preemergence, ragweed; settings: scale 0 to 100
Text: as §2

[6] = test system: rice (Oryza sativa); assay: Test B flooded paddy test, rice; settings: Flood, scale 0 to 100
Procedure, shortened: as §1

[7] = test system: kochia (Kochia scoparia); assay: Test B preemergence, kochia; settings: scale 0 to 100
Text: as §2

[8] = test system: Russian thistle (Salsola kali); assay: Test B preemergence, Russian thistle; settings: scale 0 to 100
Text: as §2

CC1(C)CC(S(=O)(=O)Cc2c(C(F)(F)F)nc3n(c2=O)CCC3)=NO1 [Compound 11, 3-[[(4,5-dihydro-5,5-dimethyl-3-isoxazolyl)sulfonyl]methyl]-7,8-dihydro-2-(trifluoromethyl)pyrrolo[1,2-α]pyrimidin-4(6H)-one] was tested, and the “Plant response rating, Pigweed” value ([1]; 125 g ai/ha) was 30, the “Plant response rating, Pigweed” value ([1]; 500 g ai/ha) was 70 and the “Plant response rating, Ducksalad” value ([2]; 31 g ai/ha) was 0. For the same molecule, the “Plant response rating, Ducksalad” value ([2]; 62 g ai/ha) was 0, the “Plant response rating, Ducksalad” value ([2]; 125 g ai/ha) was 0 and the “Plant response rating, Ducksalad” value ([2]; 250 g ai/ha) was 35. The “Plant response rating, Ryegrass, Italian” value ([3]; 16 g ai/ha) was 0, the “Plant response rating, Ryegrass, Italian” value ([3]; 31 g ai/ha) was 0 and the “Plant response rating, Ryegrass, Italian” value ([3]; 62 g ai/ha) was 0. The “Plant response rating, Ryegrass, Italian” value ([3]; 125 g ai/ha) was 90, the “Plant response rating, Wheat” value ([4]; 16 g ai/ha) was 0 and the “Plant response rating, Wheat” value ([4]; 31 g ai/ha) was 0. For the same molecule, the “Plant response rating, Wheat” value ([4]; 62 g ai/ha) was 20, the “Plant response rating, Wheat” value ([4]; 125 g ai/ha) was 50 and the “Plant response rating, Ragweed” value ([5]; 16 g ai/ha) was 0. The “Plant response rating, Ragweed” value ([5]; 31 g ai/ha) was 40, the “Plant response rating, Ragweed” value ([5]; 62 g ai/ha) was 50 and the “Plant response rating, Ragweed” value ([5]; 125 g ai/ha) was 55. The “Plant response rating, Rice” value ([6]; 31 g ai/ha) was 0, the “Plant response rating, Rice” value ([6]; 62 g ai/ha) was 0 and the “Plant response rating, Rice” value ([6]; 125 g ai/ha) was 25. The “Plant response rating, Rice” value ([6]; 250 g ai/ha) was 25.
With CC1(C)CC(S(=O)(=O)Cc2c(C(F)(F)C(F)(F)F)nc3n(c2=O)CCCC3)=NO1 [Compound 21] the “Plant response rating, Pigweed” value ([1]; 125 g ai/ha) was 0, the “Plant response rating, Pigweed” value ([1]; 500 g ai/ha) was 10 and the “Plant response rating, Kochia” value ([7]; 16 g ai/ha) was 0. The “Plant response rating, Kochia” value ([7]; 62 g ai/ha) was 60, the “Plant response rating, Kochia” value ([7]; 125 g ai/ha) was 80 and the “Plant response rating, Russian Thistle” value ([8]; 16 g ai/ha) was 0. For the same molecule, the “Plant response rating, Russian Thistle” value ([8]; 31 g ai/ha) was 60, the “Plant response rating, Russian Thistle” value ([8]; 62 g ai/ha) was 65 and the “Plant response rating, Russian Thistle” value ([8]; 125 g ai/ha) was 85. For the same molecule, the “Plant response rating, Ducksalad” value ([2]; 62 g ai/ha) was 0, the “Plant response rating, Ducksalad” value ([2]; 250 g ai/ha) was 0 and the “Plant response rating, Ryegrass, Italian” value ([3]; 16 g ai/ha) was 0. The “Plant response rating, Ryegrass, Italian” value ([3]; 31 g ai/ha) was 0, the “Plant response rating, Ryegrass, Italian” value ([3]; 62 g ai/ha) was 0 and the “Plant response rating, Ryegrass, Italian” value ([3]; 125 g ai/ha) was 40. For the same molecule, the “Plant response rating, Wheat” value ([4]; 16 g ai/ha) was 0, the “Plant response rating, Wheat” value ([4]; 31 g ai/ha) was 0 and the “Plant response rating, Wheat” value ([4]; 62 g ai/ha) was 0. For the same molecule, the “Plant response rating, Wheat” value ([4]; 125 g ai/ha) was 0, the “Plant response rating, Ragweed” value ([5]; 16 g ai/ha) was 0 and the “Plant response rating, Ragweed” value ([5]; 31 g ai/ha) was 0. For the same molecule, the “Plant response rating, Ragweed” value ([5]; 62 g ai/ha) was 0, the “Plant response rating, Ragweed” value ([5]; 125 g ai/ha) was 10 and the “Plant response rating, Rice” value ([6]; 62 g ai/ha) was 0. For the same molecule, the “Plant response rating, Rice” value ([6]; 250 g ai/ha) was 0.
For CC1(C)CC(S(=O)(=O)Cc2c(C(F)(F)C(F)(F)F)nc3n(c2=O)CCC3)=NO1 [Compound 22], the “Plant response rating, Pigweed” value ([1]; 125 g ai/ha) was 0, the “Plant response rating, Pigweed” value ([1]; 500 g ai/ha) was 40 and the “Plant response rating, Kochia” value ([7]; 16 g ai/ha) was 0. For the same molecule, the “Plant response rating, Kochia” value ([7]; 31 g ai/ha) was 0, the “Plant response rating, Kochia” value ([7]; 62 g ai/ha) was 0 and the “Plant response rating, Kochia” value ([7]; 125 g ai/ha) was 70. For the same molecule, the “Plant response rating, Russian Thistle” value ([8]; 31 g ai/ha) was 0, the “Plant response rating, Russian Thistle” value ([8]; 62 g ai/ha) was 30 and the “Plant response rating, Russian Thistle” value ([8]; 125 g ai/ha) was 60. For the same molecule, the “Plant response rating, Ducksalad” value ([2]; 62 g ai/ha) was 0, the “Plant response rating, Ducksalad” value ([2]; 250 g ai/ha) was 0 and the “Plant response rating, Ryegrass, Italian” value ([3]; 16 g ai/ha) was 0. For the same molecule, the “Plant response rating, Ryegrass, Italian” value ([3]; 31 g ai/ha) was 30, the “Plant response rating, Ryegrass, Italian” value ([3]; 62 g ai/ha) was 100 and the “Plant response rating, Ryegrass, Italian” value ([3]; 125 g ai/ha) was 100. For the same molecule, the “Plant response rating, Wheat” value ([4]; 16 g ai/ha) was 0, the “Plant response rating, Wheat” value ([4]; 31 g ai/ha) was 0 and the “Plant response rating, Wheat” value ([4]; 62 g ai/ha) was 0. The “Plant response rating, Wheat” value ([4]; 125 g ai/ha) was 10, the “Plant response rating, Ragweed” value ([5]; 16 g ai/ha) was 0 and the “Plant response rating, Ragweed” value ([5]; 31 g ai/ha) was 0. For the same molecule, the “Plant response rating, Ragweed” value ([5]; 62 g ai/ha) was 30, the “Plant response rating, Ragweed” value ([5]; 125 g ai/ha) was 50 and the “Plant response rating, Rice” value ([6]; 62 g ai/ha) was 0. The “Plant response rating, Rice” value ([6]; 250 g ai/ha) was 10.
In the case of CC1(C)CC(S(=O)(=O)Cc2c(C(F)(F)F)nc3ccsn3c2=O)=NO1 [Compound 16], the “Plant response rating, Pigweed” value ([1]; 125 g ai/ha) is reported as 10, the “Plant response rating, Pigweed” value ([1]; 500 g ai/ha) is reported as 50 and the “Plant response rating, Kochia” value ([7]; 16 g ai/ha) is reported as 0. For the same molecule, the “Plant response rating, Kochia” value ([7]; 31 g ai/ha) was 0, the “Plant response rating, Kochia” value ([7]; 62 g ai/ha) was 0 and the “Plant response rating, Kochia” value ([7]; 125 g ai/ha) was 0. The “Plant response rating, Ducksalad” value ([2]; 62 g ai/ha) was 40, the “Plant response rating, Ducksalad” value ([2]; 250 g ai/ha) was 40 and the “Plant response rating, Ryegrass, Italian” value ([3]; 16 g ai/ha) was 0. For the same molecule, the “Plant response rating, Ryegrass, Italian” value ([3]; 31 g ai/ha) was 0, the “Plant response rating, Ryegrass, Italian” value ([3]; 62 g ai/ha) was 30 and the “Plant response rating, Ryegrass, Italian” value ([3]; 125 g ai/ha) was 60. The “Plant response rating, Wheat” value ([4]; 16 g ai/ha) was 0, the “Plant response rating, Wheat” value ([4]; 31 g ai/ha) was 0 and the “Plant response rating, Wheat” value ([4]; 62 g ai/ha) was 0. The “Plant response rating, Wheat” value ([4]; 125 g ai/ha) was 0, the “Plant response rating, Ragweed” value ([5]; 16 g ai/ha) was 0 and the “Plant response rating, Ragweed” value ([5]; 31 g ai/ha) was 0. The “Plant response rating, Ragweed” value ([5]; 62 g ai/ha) was 0, the “Plant response rating, Ragweed” value ([5]; 125 g ai/ha) was 0 and the “Plant response rating, Rice” value ([6]; 62 g ai/ha) was 0. For the same molecule, the “Plant response rating, Rice” value ([6]; 250 g ai/ha) was 0.
For CC1(C)CC(S(=O)(=O)Cc2c(C(F)(F)Cl)nc3n(c2=O)CCC3)=NO1 [Compound 18], the “Plant response rating, Pigweed” value ([1]; 125 g ai/ha) was 30, the “Plant response rating, Pigweed” value ([1]; 500 g ai/ha) was 40 and the “Plant response rating, Kochia” value ([7]; 16 g ai/ha) was 0. For the same molecule, the “Plant response rating, Kochia” value ([7]; 31 g ai/ha) was 0, the “Plant response rating, Kochia” value ([7]; 62 g ai/ha) was 55 and the “Plant response rating, Kochia” value ([7]; 125 g ai/ha) was 100. The “Plant response rating, Ducksalad” value ([2]; 31 g ai/ha) was 0, the “Plant response rating, Ducksalad” value ([2]; 62 g ai/ha) was 0 and the “Plant response rating, Ducksalad” value ([2]; 125 g ai/ha) was 0. The “Plant response rating, Ducksalad” value ([2]; 250 g ai/ha) was 0, the “Plant response rating, Ryegrass, Italian” value ([3]; 16 g ai/ha) was 0 and the “Plant response rating, Ryegrass, Italian” value ([3]; 31 g ai/ha) was 0. For the same molecule, the “Plant response rating, Ryegrass, Italian” value ([3]; 62 g ai/ha) was 35, the “Plant response rating, Ryegrass, Italian” value ([3]; 125 g ai/ha) was 40 and the “Plant response rating, Wheat” value ([4]; 16 g ai/ha) was 0. The “Plant response rating, Wheat” value ([4]; 31 g ai/ha) was 0, the “Plant response rating, Wheat” value ([4]; 62 g ai/ha) was 50 and the “Plant response rating, Ragweed” value ([5]; 16 g ai/ha) was 0. The “Plant response rating, Ragweed” value ([5]; 31 g ai/ha) was 0, the “Plant response rating, Ragweed” value ([5]; 62 g ai/ha) was 0 and the “Plant response rating, Ragweed” value ([5]; 125 g ai/ha) was 0. For the same molecule, the “Plant response rating, Rice” value ([6]; 31 g ai/ha) was 0, the “Plant response rating, Rice” value ([6]; 62 g ai/ha) was 0 and the “Plant response rating, Rice” value ([6]; 125 g ai/ha) was 0. For the same molecule, the “Plant response rating, Rice” value ([6]; 250 g ai/ha) was 0.

From patent publication US20100099561A1, “HETEROBICYCLIC ALKYLTHIO-BRIDGED ISOXAZOLINES” (E.I. DU PONT DE NEMOURS AND COMPANY, priority 2008, published 2010)
